Reference: patent publication US20080171716A1, “NUCLEIC ACID MODULATION OF TOLL-LIKE RECEPTOR-MEDIATED IMMUNE STIMULATION” (Protiva Biotherapeutics, Inc., priority 2006, published 2008)

What was measured:
TLR7 [1] = target: T1, TLR7 (Mus musculus, UniProt P58681); experiment: Loxoribine-induced IFN-α/IL-6 production in murine Flt3L-derived dendritic cells; type: cell-based; set-up: Femurs and tibiae of female Balb/C mice were isolated; endogenous in cells; host or cells: Flt3L-derived dendritic cells cultured from bone marrow of female Balb/C mice; details: murine Flt3L DC; 30 μM Lox; 0.2 μM RNA; 24 h
T1 sequence (P58681 27-1050): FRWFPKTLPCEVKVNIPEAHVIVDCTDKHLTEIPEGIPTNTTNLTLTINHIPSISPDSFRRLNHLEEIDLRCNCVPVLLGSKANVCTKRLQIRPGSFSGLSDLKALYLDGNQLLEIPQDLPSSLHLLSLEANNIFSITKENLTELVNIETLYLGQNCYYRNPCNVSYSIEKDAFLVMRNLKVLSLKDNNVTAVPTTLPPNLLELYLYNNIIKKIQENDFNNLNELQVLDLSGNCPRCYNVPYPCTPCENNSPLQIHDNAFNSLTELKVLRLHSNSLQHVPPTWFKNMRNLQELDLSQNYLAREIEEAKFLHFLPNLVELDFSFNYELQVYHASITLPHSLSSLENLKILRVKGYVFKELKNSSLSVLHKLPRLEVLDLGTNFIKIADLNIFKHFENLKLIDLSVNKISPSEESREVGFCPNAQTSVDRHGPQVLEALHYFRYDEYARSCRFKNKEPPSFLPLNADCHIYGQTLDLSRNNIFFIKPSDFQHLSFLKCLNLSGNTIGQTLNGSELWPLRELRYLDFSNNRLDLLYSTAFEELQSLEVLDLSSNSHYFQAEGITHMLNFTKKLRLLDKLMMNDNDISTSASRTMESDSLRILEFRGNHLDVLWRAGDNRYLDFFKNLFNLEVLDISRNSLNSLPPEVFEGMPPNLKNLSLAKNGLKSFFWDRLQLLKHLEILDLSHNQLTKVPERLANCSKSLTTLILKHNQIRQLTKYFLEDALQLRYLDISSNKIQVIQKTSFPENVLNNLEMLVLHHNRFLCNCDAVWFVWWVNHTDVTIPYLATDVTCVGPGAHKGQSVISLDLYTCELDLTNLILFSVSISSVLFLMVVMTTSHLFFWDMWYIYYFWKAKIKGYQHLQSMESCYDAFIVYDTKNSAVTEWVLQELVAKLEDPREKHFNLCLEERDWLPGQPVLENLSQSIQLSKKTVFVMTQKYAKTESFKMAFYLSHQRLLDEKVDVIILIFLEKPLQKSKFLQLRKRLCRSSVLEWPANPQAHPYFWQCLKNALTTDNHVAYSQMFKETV
Method: Lipid Encapsulation of RNA and ODN. RNA or ODN were encapsulated in liposomes by a process of spontaneous vesicle formation as described in Judge et al., supra, and Jeffs et al., Pharm. Res., 22:362-372 (2005).
Flt3L-derived dendritic cells (DC) were generated as described in Gilliet et al., J. Exp. Med., 195:953-958 (2002), using 100 ng/ml murine Flt3-ligand (Peprotech) supplemented media. Femurs and tibiae of female Balb/C mice were isolated and rinsed in sterile PBS. The ends of bones were cut and marrow harvested in complete media (RPMI 1640, 10% heat inactivated FBS, 1% penicillin/streptomycin, 2 mM L-glutamine, 1 mM sodium pyruvate, 25 mM HEPES, 50 μM 2-mercaptoethanol). Bone marrow cells were passed through a 70 μm strainer and centrifuged at 1000 rpm for 7 min. and resuspended in complete media supplemented with 100 ng/ml murine Flt3L to 2×10^6 cells/ml. 2 ml of cells were seeded in 6-well plates and 1 ml fresh media was added every two to three days. On day 9 of culture, non-adherent cells were washed in complete media and plated into 96-well plates at concentrations ranging from 0.5 to 2.5×10^5 cells/well. […]
Cytokine ELISA. All cytokines were quantified using sandwich ELISA kits according to the manufacturer's instructions. […]

TLR7 [2] = target: T1, TLR7; experiment: In vivo cytokine induction by formulated ssRNA in mice; set-up: from tissue; host or cells: whole animal: female Balb/C mice, plasma cytokines; species or system Balb/C mice; details: IV
Method: Cytokine ELISA. All cytokines were quantified using sandwich ELISA kits according to the manufacturer's instructions. These were mouse and human IFN-α (PBL Biomedical; Piscataway, N.J.) and IL-6 (eBioscience; San Diego, Calif.).
In Vivo Cytokine Induction. Animal studies were performed at Protiva Biotherapeutics in accordance with Canadian Council on Animal Care guidelines and following protocol approval by the local Animal Care and Use Committee. Female Balb/C mice were subjected to a two-week quarantine and acclimation period prior to use at six to eight-weeks of age. RNA formulations were administered by standard injection in the lateral tail vein in 0.2 ml PBS. Six hours after injection, blood was collected by cardiac puncture and processed as plasma for cytokine analysis. In experiments studying inhibition of cytokine induction by loxoribine, formulated RNA (100 μg) was administered IV 2 h prior to IV administration of 1 mg loxoribine in PBS. Blood was collected by cardiac puncture 2 h after administration of loxoribine and processed as plasma for cytokine analysis.

[3] = 1:1 molar ratio in lipid particles, 40 μg βgal AS RNA, plasma 6 h
[4] = plasma 6 h after administration

polyUmod21: 2′OMe-uridine homopolymer of 21 nucleotides in length (UUUUUUUUUUUUUUUUUUUUU; all 2'-O-methyl, backbone not given here)
inhibition of Lox-mediated IFN-α induction (TLR7 [1]): 87+/−11%
inhibition of Lox-mediated IL-6 induction (TLR7 [1]): 69+/−1%
IFN-α induction by ssRNA agonist when co-formulated (TLR7 [2]; [3]): eliminated measurable
IL-6 induction by ssRNA agonist when co-formulated (TLR7 [2]; [3]): eliminated measurable
plasma IFN-α after administration of the formulated RNA alone (TLR7 [2]; [4]): no measurable cytokine response
plasma IL-6 after administration of the formulated RNA alone (TLR7 [2]; [4]): no measurable cytokine response
